In US20250040546A1, “DETERGENT FOR VIRAL INACTIVATION” (Bristol-Myers Squibb Company, priority 2021, published 2025):
Where two headings read alike, the source gives them in different places.

Columns and labels:
[1] = tested on: X-MuLV; assay: Detergent-mediated virus inactivation of X-MuLV in mAb1 harvest (pfu-based LRV); assay type: cell-based, Xenotropic Murine Leukemia Virus; settings: for Log reduction value (LRV) of X-MuLV: 60 minutes hold at 2-8° C.
Procedure: (§1) Three lipid-enveloped viruses X-MuLV, HSV-1 and A-MuLV (Amphotropic Murine Leukemia Virus) were investigated for VI in the cell culture fluid of a monoclonal antibody (mAb1) and a fusion protein (Fus1) for a range of detergents and detergent concentrations (FIG. 6). Protein concentration and buffer matrix were dictated by that in the harvest for the specific therapeutic and process. A temperature of 2-8° C. was used as a worst case for inactivation and incubation times of 0, 5 and 60 minutes were used to explore the kinetics of inactivation. Viral clearance was measured in units of Log Reduction Value (LRV) which was calculated from pfu (Plaque Forming Units) as follows
(§2) Virus inactivation studies were conducted for X-MuLV in mAb1 harvest, HSV-1 and A-MuLV in Fus1 harvest at 0, 5 and 60 minutes at 2-8° C. The inactivation studies for each condition were conducted in duplicates with results varying within 0.5 LRV. The lower of the two LRVS was plotted in FIG. 6 to remain conservative regarding the extent of inactivation. The error bars represent the assay variability.
The mechanism of detergent-mediated VI can share similarities with pH-mediated VI and is likely a characteristic of the detergent-protein-virus system under consideration. Detergents could unfold or denature specific viral surface glycoproteins that are critical for the host cell infection as is the case for X-MuLV [Brorson et al. (2003) Biotechnology and Bioengineering 82(3):321-329; Simons & Ehehalt (2002) Journal of Clinical Investigation 110(5):597-603]. Alternately, detergents could inactivate viruses such as HSV-1 through dissolution of the viral lipid envelope or preferential partitioning of the membrane protein into detergent micelles [Welling-Wester et al. (1998) Journal of chromatography A 816(1):29-37]. Three lipid-enveloped viruses commonly used for viral validation studies, X-MuLV, HSV-1 and A-MuLV (Amphotropic Murine Leukemia Virus), were investigated for VI. Any VI condition showing LRV ≥4.0 after a 60 minute hold at 2-8° C., worst case temperature for VI, was considered effective. The extent of inactivation from different detergents was compared with Triton X-100.

[2] = Slinde & Flatmark (1976); cited from earlier work
[3] = cited from earlier work
[4] = tested on: A-MuLV; assay: Detergent-mediated virus inactivation of A-MuLV in Fus1 harvest (pfu-based LRV); assay type: cell-based, Amphotropic Murine Leukemia Virus; settings: detergent concentration not stated
Procedure: as §1, §2
The mechanism of detergent-mediated VI can share similarities with pH-mediated VI and is likely a characteristic of the detergent-protein-virus system under consideration. […]

[5] = tested on: HSV-1; assay: Detergent-mediated virus inactivation of HSV-1 in Fus1 harvest (pfu-based LRV); assay type: cell-based, Herpes Simplex Virus type 1; settings: detergent concentration not stated
[6] = Sialic acid content of Fus1 and Fus2 Protein A eluates of detergent-spiked harvest; assay type: physicochemical; settings: stated as within acceptable range
Procedure: Sialic acids are neuraminic acids modified by the addition of an acetyl group (N-acetylneuraminic acid/NANA) or a glycol group (N-glycolylneuraminic acid/NGNA) .Sialic acid contents are reported as normalized molar ratios, which are the total moles of NANA and NGNA per mole of recombinant protein. The protein concentrations were determined by UV absorbance at 280 nm. Sialic acid content was determined by partial acidic hydrolysis using sulfuric acid at 0.1 N final concentration at 80° C. for 1 hour followed by reversed phase HPLC using Rezex Monosaccharide RHM HPLC column (Phenomenex, Catalog No. OOH-0132-KO with respective guard column (Phenomenex, Catalog No. 03B-0132-KO). Elution was conducted with 5 mM Sulfuric acid at 0.6 mL/min and 40° C.

[7] = Isoelectric point (pI); assay type: physicochemical
[8] = tested on: fusion proteins Fus1 and Fus2; assay: SEC analysis of HMW formation and aggregation kinetics of fusion proteins with detergents; assay type: physicochemical
Procedure: Size exclusion chromatography (SEC) was performed in a Waters HPLC Alliance 2695 System using TSKgel G3000SWXL Column (Tosoh Bioscience, Catalogue no. 085430) with guard column (Tosoh Bioscience, Catalogue no. 08541) in line. A mobile phase of 0.2 M Sodium phosphate, monobasic, 0.9% NaCl, pH 7.0 was used with 20 μL injection volumes at 1 to 10 mg/mL target protein concentrations with a flow rate of 1 mL/minute. Tandem SEC was performed with 50 μL injection volumes with a flow rate of 0.5 mL/minute using 6 TSKgel G3000SWXL Column using 0.2 M KH2PO4, 0.9% NaCl, pH 6.8 as mobile phase.
Given N is the monomer species, No is the initial monomer % at time t=0, aggregation follows first order kinetics with k1 being the rate constant of aggregation as shown in Equation (1) (Derivation in Supplemental Information).

[9] = biological target: T1, Fus1 (Homo sapiens, UniProt P16410); assay: Oxidation of Fus1 (tryptic digest RP-UPLC) after detergent spiking of harvest; assay type: physicochemical; settings: Fus1 harvest spiked with detergent at 1×CMC, protein A eluate
T1 construct: made in house; host or cells: CHO
Procedure: (§3) The protein sample was denatured in denaturation buffer (8 M guanidine, 50 mM TRIS, pH 8.0) and the cystine disulfide bridges were reduced with dithiothreitol (200 mM DTT) followed by S-alkylation with iodoacetamide (400 mM IAM). The denatured, reduced protein was buffer-exchanged (50 mM TRIS, 10 mM CaCl2), pH 7.6) prior to digestion with trypsin. The resulting digested mixture was then analyzed by reverse-phase ultra-performance liquid chromatography (RP-UPLC) using UPLC BEH C18 Column, […], 130 angstrom, 2.1×100 mm (Waters, Catalog no. 186002352) with Mobile Phase A (0.1% TFA, 50 mM Methionine in HPLC Grade Water) and Mobile Phase B (0.1% TFA, 50 mM Methionine in 80% ACN and 20% HPLC grade water). Protein detection at 215 nm absorbance and fluorescent excitation/emission of 275 nm/303 nm and 280 nm/348 nm was used to quantify relative levels of oxidation and deamidation respectively.

[10] = tested on: lipid-enveloped viruses; assay: Viral inactivation, summary statements (LRV equal or above 4 criterion); assay type: cell-based; settings: detergent below its CMC, e.g. 0.5×CMC; virus not named
Excerpt: The present disclosure relates to detergent-mediated inactivation of lipid-enveloped viruses. […] The current commercially available detergent for such process is Triton X-100.
Several environmentally friendly detergents for the viral inactivation step of biologics manufacturing processes have been identified in the art, e.g., Lauryldimethylamine Oxide (LDAO) and ECOSURF™ EH9. These systems for viral inactivation use a single detergent. The present disclosure provides a detergent mixture comprising two environmentally sustainable detergents: n-Octyl-β-D-Glucopyranoside (OG) and n-Dodecyl-β-D-Maltopyranoside (DDM). […] Accordingly, the disclosed combination of OG and DDM can be used as substitute of Triton X-100 for the viral inactivation step in the production of biologics, for example, in the process used to manufacture ORENCIA®.

[11] = biological target: T2, Fus2 (Homo sapiens, UniProt P16410, A66Y/L141E); assay: Oxidation of Fus2 (tryptic digest RP-UPLC) after detergent spiking of harvest; assay type: physicochemical; settings: Fus2 harvest spiked with detergent at 1×CMC, protein A eluate
T2 construct: made in house; host or cells: CHO
Procedure: as §3

[12] = tested on: B7.1 Ig; assay: Potency: Surface Plasmon Resonance binding of CTLA-4 domain of Fus1 to B7.1 Ig in presence of detergent; settings: high concentration Fus1 DS; detergent at 10×CMC; 24 hours, room temperature
Procedure: The potency was determined by measuring the binding efficacy of the CTLA-4 (cytotoxic T-lymphocyte-associated protein 4) domain of the fusion proteins against the complementary binding domain of membrane protein B7.1 Ig, typically found on activated antigen-presenting cells (APC). Drug efficacy for the purified DS was evaluated using a Surface Plasmon Resonance assay; the binding efficacy of the CTLA-4 domain of Fus1 and Fus2 against a high concentration of the peripheral membrane protein B7.1 Ig was examined. Due to the influence of impurities on the binding efficacy, only DS was tested.

T1 sequence (P16410 with tags, fused parts or gaps): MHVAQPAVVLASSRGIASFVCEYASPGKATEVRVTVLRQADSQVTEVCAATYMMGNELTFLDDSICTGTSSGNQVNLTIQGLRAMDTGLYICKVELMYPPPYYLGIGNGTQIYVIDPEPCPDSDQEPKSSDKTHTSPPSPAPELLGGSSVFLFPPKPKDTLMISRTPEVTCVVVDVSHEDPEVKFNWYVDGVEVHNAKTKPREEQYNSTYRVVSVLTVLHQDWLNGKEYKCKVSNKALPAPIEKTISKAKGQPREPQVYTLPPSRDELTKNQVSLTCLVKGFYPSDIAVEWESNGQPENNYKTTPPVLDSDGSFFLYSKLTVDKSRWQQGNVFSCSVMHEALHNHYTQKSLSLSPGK
T2 sequence (P16410 with tags, fused parts or gaps A66Y/L141E limits assumed): as the sequence (P16410 with tags, fused parts or gaps) above, with A29Y, L104E counted along it

## Triton X-100
[1]; detergent at 1×CMC
  Log reduction value (LRV) of X-MuLV: ≥ 4.85±0.5 LRV
[1]; detergent at 10×CMC
  Log reduction value (LRV) of X-MuLV: ≥ 4.85±0.5 LRV
[2]
  HLB value: 13.5

## CCCCCCCCCCCC[N+](C)(C)[O-] [LDAO, Lauryldimethylamine Oxide]
[3]; fusion protein at 2-8° C. (Conley et al.)
  LRV: ~3.0 LRV
[3]; fusion protein at room temperature (Conley et al.)
  LRV: ~4.0 LRV
[3]; mAb under the same conditions, 2-8° C. (Conley et al.)
  LRV: 4.0 LRV

## Polysorbate 80 [PS80]
[4]
  Inactivation of A-MuLV: No inactivation
[1]; detergent concentration not stated
  Inactivation of X-MuLV: No inactivation
[5]
  Inactivation of HSV-1: No inactivation

## Fus2: fusion protein belatacept (SEQ ID NO:2 proteins)
[6]
  NANA (N-acetylneuraminic acid): protein molar concentration: 6 to 8.5%
[7]
  pI: ~5.0

## CCCCCCCCCCO[C@@H]1O[C@H](CO)[C@@H](O[C@H]2O[C@H](CO)[C@@H](O)[C@H](O)[C@H]2O)[C@H](O)[C@H]1O [DM, n-Decyl-β-D-Maltopyranoside]
[1]; detergent at 10×CMC
  Log reduction value (LRV) of X-MuLV: 2.0 LRV

## Fus1: fusion protein abatacept (CTLA4-Ig, SEQ ID NO:1 proteins)
[6]
  NANA (N-acetylneuraminic acid): protein molar concentration: 8 to 12%
[7]
  pI: ~5.0

## CCCCCCCCO[C@@H]1O[C@H](CO)[C@@H](O)[C@H](O)[C@H]1O [OG, n-Octyl-β-D-Glucopyranoside]
[8]; SEC, DS and clarified harvest of Fus1 and Fus2
  HMW formation (rank among detergents): greatest
[8]; high concentration DS of Fus1 and Fus2
  Rate of aggregation (rank among OG, DDM, LDAO): fastest rate of aggregation
[9]
  Oxidation of Fus1: higher oxidation
[10]
  Viral inactivation (defined as a LRV equal or above 4): insufficient for viral inactivation
[11]
  Oxidation of Fus2: higher oxidation
[12]
  Potency (B7 binding efficiency relative to reference material): less than 60%
